Measured values taken from patent US11053204B2, “Pyrimidinyloxy benzene derivatives as herbicides” (FMC Corporation, priority 2015, dated 2021).

Columns and labels:
Format in all cases: in vivo
[1] = tested on: johnsongrass (Sorghum halepense); test: Test C preemergence, plant response rating
[2] = tested on: pigweed, palmer (palmer pigweed, Amaranthus palmeri); test: Test C preemergence, plant response rating
kochia (Kochia scoparia) = test: Test C preemergence, plant response rating
[3] = tested on: wild poinsettia (Euphorbia heterophylla); test: Test C preemergence, plant response rating
[4] = tested on: windgrass (Apera spica-venti); test: Test C preemergence, plant response rating
[5] = tested on: oat, wild (wild oat Avena fatua); test: Test C preemergence, plant response rating
[6] = tested on: Canada thistle (Cirsium arvense); test: Test C postemergence, plant response rating; details: for Canada Thistle plant response rating: scale 0 to 100 (0 no effect, 100 complete control)
Method in brief: (§1)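 Pre-emergence: seeds sown in loam soil–sand blend or silt loam and sprayed with test chemicals in a non-phytotoxic solvent mixture with surfactant. Post-emergence: plants 2 to 18 cm (1- to 4-leaf stage) in peat-based potting medium, same formulation. Greenhouse 13 to 15 d; visual rating 0 (no effect) to 100 (complete control) versus controls.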

[7] = tested on: buckwheat, wild (wild buckwheat, Polygonum convolvulus); test: Test C postemergence, plant response rating; details: for Buckwheat, Wild plant response rating: scale 0 to 100 (0 no effect, 100 complete control)
Method in brief: as §1

[8] = tested on: field poppy (Papaver rhoeas); test: Test C postemergence, plant response rating; details: for Field Poppy plant response rating: scale 0 to 100 (0 no effect, 100 complete control)
Method in brief: as §1

[9] = tested on: field violet (Viola arvensis); test: Test C postemergence, plant response rating; details: for Field Violet plant response rating: scale 0 to 100 (0 no effect, 100 complete control)
Method in brief: as §1

[10] = tested on: geranium, cutleaf (cutleaf geranium, Geranium dissectum); test: Test C postemergence, plant response rating; details: for Geranium, Cutleaf plant response rating: scale 0 to 100 (0 no effect, 100 complete control)
Method in brief: as §1

[11] = tested on: johnsongrass (Sorghum halepense); test: Test C postemergence, plant response rating; details: for Johnsongrass plant response rating: scale 0 to 100 (0 no effect, 100 complete control)
Method in brief: as §1

[12] = tested on: nightshade (eastern black nightshade, Solanum ptycanthum); test: Test C postemergence, plant response rating; details: for Nightshade plant response rating: scale 0 to 100 (0 no effect, 100 complete control)
Method in brief: as §1

[13] = tested on: pigweed, palmer (palmer pigweed, Amaranthus palmeri); test: Test C postemergence, plant response rating; details: for Pigweed, Palmer plant response rating: scale 0 to 100 (0 no effect, 100 complete control)
Method in brief: as §1

[14] = tested on: speedwell (bird's-eye speedwell, Veronica persica); test: Test C postemergence, plant response rating; details: for Speedwell plant response rating: scale 0 to 100 (0 no effect, 100 complete control)
Method in brief: as §1

[15] = tested on: surinam grass (Brachiaria decumbens); test: Test C postemergence, plant response rating
Method in brief: as §1

[16] = tested on: wild mustard (Sinapis arvensis); test: Test C postemergence, plant response rating; details: for Mustard, Wild plant response rating: scale 0 to 100 (0 no effect, 100 complete control)
Method in brief: as §1

[17] = tested on: wild poinsettia (Euphorbia heterophylla); test: Test C postemergence, plant response rating; details: for Poinsettia, Wild plant response rating: scale 0 to 100 (0 no effect, 100 complete control)
Method in brief: as §1

[18] = tested on: windgrass (Apera spica-venti); test: Test C postemergence, plant response rating
Method in brief: as §1

[19] = 125 g ai/ha, scale 0 to 100 (0 no effect, 100 complete control)

## CCCC(=O)c1c(Oc2ncc(Cl)cn2)cccc1C(F)(F)F [Compound 136]
[1]; 31 g ai/ha, scale 0 to 100
  Plant response rating, Johnsongrass: 25
[1]; 62 g ai/ha, scale 0 to 100
  Plant response rating, Johnsongrass: 35
[1]; 125 g ai/ha, scale of 0 to 100
  Plant response rating, Johnsongrass: 70
[2]; 31 g ai/ha, scale 0 to 100
  Plant response rating, Pigweed, Palmer: 75
[2]; 62 g ai/ha, scale 0 to 100
  Plant response rating, Pigweed, Palmer: 100
[2]; 125 g ai/ha, scale of 0 to 100
  Plant response rating, Pigweed, Palmer: 100
Kochia (Kochia scoparia); 31 g ai/ha, scale 0 to 100
  Plant response rating, Kochia: 80
Kochia (Kochia scoparia); 62 g ai/ha, scale 0 to 100
  Plant response rating, Kochia: 85
Kochia (Kochia scoparia); 125 g ai/ha, scale of 0 to 100
  Plant response rating, Kochia: 98
[3]; 31 g ai/ha, scale 0 to 100
  Plant response rating, Poinsettia, Wild: 5
[3]; 62 g ai/ha, scale 0 to 100
  Plant response rating, Poinsettia, Wild: 25
[3]; 125 g ai/ha, scale of 0 to 100
  Plant response rating, Poinsettia, Wild: 50
[4]; 31 g ai/ha, scale 0 to 100
  Plant response rating, Windgrass: 30
[4]; 62 g ai/ha, scale 0 to 100
  Plant response rating, Windgrass: 85
[4]; 125 g ai/ha, scale of 0 to 100
  Plant response rating, Windgrass: 100
[5]; 31 g ai/ha, scale 0 to 100
  Plant response rating, Oat, Wild: 0
[5]; 62 g ai/ha, scale 0 to 100
  Plant response rating, Oat, Wild: 5
[5]; 125 g ai/ha, scale of 0 to 100
  Plant response rating, Oat, Wild: 45
[6]; 16 g ai/ha, scale of 0 to 100
  Plant response rating, Canada Thistle: 65
[6]; 31 g ai/ha, scale 0 to 100
  Plant response rating, Canada Thistle: 75
[6]; 62 g ai/ha
  Canada Thistle plant response rating: 85
[6]; 125 g ai/ha
  Canada Thistle plant response rating: 85
[7]; 16 g ai/ha, scale of 0 to 100
  Plant response rating, Buckwheat, Wild: 50
[7]; 31 g ai/ha, scale 0 to 100
  Plant response rating, Buckwheat, Wild: 60
[7]; 62 g ai/ha
  Buckwheat, Wild plant response rating: 90
[7]; 125 g ai/ha
  Buckwheat, Wild plant response rating: 80
[8]; 16 g ai/ha, scale of 0 to 100
  Plant response rating, Field Poppy: 65
[8]; 31 g ai/ha, scale 0 to 100
  Plant response rating, Field Poppy: 85
[8]; 62 g ai/ha
  Field Poppy plant response rating: 80
[8]; 125 g ai/ha
  Field Poppy plant response rating: 90
[9]; 16 g ai/ha, scale of 0 to 100
  Plant response rating, Field Violet: 85
[9]; 31 g ai/ha, scale 0 to 100
  Plant response rating, Field Violet: 90
[9]; 62 g ai/ha
  Field Violet plant response rating: 95
[9]; 125 g ai/ha
  Field Violet plant response rating: 100
[10]; 16 g ai/ha, scale of 0 to 100
  Plant response rating, Geranium, Cutleaf: 15
[10]; 31 g ai/ha, scale 0 to 100
  Plant response rating, Geranium, Cutleaf: 25
[10]; 62 g ai/ha
  Geranium, Cutleaf plant response rating: 50
[10]; 125 g ai/ha
  Geranium, Cutleaf plant response rating: 45
[11]; 16 g ai/ha, scale of 0 to 100
  Plant response rating, Johnsongrass: 5
[11]; 31 g ai/ha, scale 0 to 100
  Plant response rating, Johnsongrass: 5
[11]; 62 g ai/ha
  Johnsongrass plant response rating: 10
[11]; 125 g ai/ha
  Johnsongrass plant response rating: 15
[12]; 16 g ai/ha, scale of 0 to 100
  Plant response rating, Nightshade: 70
[12]; 31 g ai/ha, scale 0 to 100
  Plant response rating, Nightshade: 75
[12]; 62 g ai/ha
  Nightshade plant response rating: 70
[12]; 125 g ai/ha
  Nightshade plant response rating: 80
[13]; 16 g ai/ha, scale of 0 to 100
  Plant response rating, Pigweed, Palmer: 50
[13]; 31 g ai/ha, scale 0 to 100
  Plant response rating, Pigweed, Palmer: 55
[13]; 62 g ai/ha
  Pigweed, Palmer plant response rating: 70
[13]; 125 g ai/ha
  Pigweed, Palmer plant response rating: 70
[14]; 16 g ai/ha, scale of 0 to 100
  Plant response rating, Speedwell: 75
[14]; 31 g ai/ha, scale 0 to 100
  Plant response rating, Speedwell: 80
[14]; 62 g ai/ha
  Speedwell plant response rating: 80
[14]; 125 g ai/ha
  Speedwell plant response rating: 85
[15]; 16 g ai/ha, scale of 0 to 100
  Plant response rating, Surinam Grass: 5
[15]; 31 g ai/ha, scale 0 to 100
  Plant response rating, Surinam Grass: 5
[15]; [19]
  Surinam Grass plant response rating: 10
[16]; 16 g ai/ha, scale of 0 to 100
  Plant response rating, Mustard, Wild: 85
[16]; 31 g ai/ha, scale 0 to 100
  Plant response rating, Mustard, Wild: 95
[16]; 62 g ai/ha
  Mustard, Wild plant response rating: 85
[16]; 125 g ai/ha
  Mustard, Wild plant response rating: 100
[17]; 16 g ai/ha, scale of 0 to 100
  Plant response rating, Poinsettia, Wild: 40
[17]; 31 g ai/ha, scale 0 to 100
  Plant response rating, Poinsettia, Wild: 65
[17]; 62 g ai/ha
  Poinsettia, Wild plant response rating: 70
[17]; 125 g ai/ha
  Poinsettia, Wild plant response rating: 75
[18]; 16 g ai/ha, scale of 0 to 100
  Plant response rating, Windgrass: 5
[18]; 31 g ai/ha, scale 0 to 100
  Plant response rating, Windgrass: 10
[18]; [19]
  Windgrass plant response rating: 30
